This is an account of results in article PMC12752568, “Aloe‐Emodin Targeting FOXC2 Disrupts NETs Formation and EMT‐Driven Postoperative Peritoneal Adhesion Through TGF‐β1‐Smad2/3 Pathway” (Advanced Science, 2025).

Molecules are shown by their SMILES. Residue numbers refer to the chain shown, from its start. A value given as a limit tells only on which side of the number the result lay.

Broadly, the Kd is the concentration at which binding is half-saturated. A low value points to tighter binding.

Common to all, as to type: binding
The target in experiment [1] is T1, Forkhead box protein C2 (FOXC2) (Homo sapiens, UniProt Q99958, S125A).
T1 construct: recombinant His-tagged FOXC2 mutant 1, purified from HEK293T cells
T1 sequence (Q99958 1-501 S125A): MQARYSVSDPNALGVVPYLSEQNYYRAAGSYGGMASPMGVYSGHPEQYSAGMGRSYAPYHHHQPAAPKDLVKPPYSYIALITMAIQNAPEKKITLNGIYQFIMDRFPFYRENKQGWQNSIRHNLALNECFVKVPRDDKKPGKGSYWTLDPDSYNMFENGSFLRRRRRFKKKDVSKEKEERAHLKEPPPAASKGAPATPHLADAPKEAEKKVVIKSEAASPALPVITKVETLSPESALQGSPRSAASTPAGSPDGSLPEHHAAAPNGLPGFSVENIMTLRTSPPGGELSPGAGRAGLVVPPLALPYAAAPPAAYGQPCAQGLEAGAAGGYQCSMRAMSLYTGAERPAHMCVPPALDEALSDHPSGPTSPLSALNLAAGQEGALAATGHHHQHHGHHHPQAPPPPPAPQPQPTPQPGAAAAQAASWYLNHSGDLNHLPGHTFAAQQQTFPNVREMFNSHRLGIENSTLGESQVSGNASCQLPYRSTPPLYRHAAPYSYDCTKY
In words: BLI (Octet RED […], Ni-NTA sensors).

Experiment [2] deals with T2, Forkhead box protein C2 (FOXC2) (Homo sapiens, UniProt Q99958).
T2 construct: recombinant His-tagged FOXC2 (WT), purified from HEK293T cells
T2 sequence (Q99958 1-501): T1 sequence (Q99958 1-501 S125A) with A125S
In words: BLI (Octet RED […], Ni-NTA sensors); supported by AE-bead competitive pull-down from PMCs. In general terms: In BLI a coated tip is dipped into the sample, and binding shifts an interference pattern.

The target of experiment [3] is T3, Forkhead box protein C2 (FOXC2) (Homo sapiens, UniProt Q99958, N127A).
T3 construct: recombinant His-tagged FOXC2 mutant 2, purified from HEK293T cells
T3 sequence (Q99958 1-501 N127A): T1 sequence (Q99958 1-501 S125A) with A125S, N127A
In words: BLI (Octet RED […], Ni-NTA sensors); KD at fit limit.

`O=C1c2cccc(O)c2C(=O)c2c(O)cc(CO)cc21` [AE, 1,8‐dihydroxy‐3‐hydroxymethyl‐anthraquinone]: the Kd in experiment [1] is 13.3 µM; in experiment [2] it was 8.25 µM; in experiment [3], under 1 pM.
